Data set [1] in a line: Cytotoxicity against human HePAD38 cells by CCK8 assay. Format: toxicity, cell-based. A general note: Formazan colour is commonly taken as a measure of viable cells.
Another data set concerns Hepatitis B virus. In words: Antiviral activity against Hepatitis B virus infected in human HePAD38 cells assessed as inhibition of viral DNA replication by qPCR analysis. In kind it is functional, organism-based.
Data set [2] is described as follows: AUC (0 to infinity) in male Beagle dog at 1.5 mg/kg, po administered via gavage and measured after 24 hrs by LC-MS/MS analysis. In kind it is ADME, organism-based, Canis lupus familiaris. As to conditions: in vivo.
A short description of data set [3]: Cmax in male Beagle dog at 1.5 mg/kg, po administered via gavage and measured after 24 hrs by LC-MS/MS analysis. In kind it is ADME, organism-based, Canis lupus familiaris. As to conditions: in vivo.
Data set [4] can be described thus: Selectivity index, ratio of CC50 for human HePAD38 cells to EC50 for hepatitis B virus infected in HePAD38 cells. In kind it is toxicity, cell-based. The conditions noted are these: read-out: Ratio CC50/EC50.
Data set [5] is described as follows: Octanol/water partition coefficient, log P of the compound. Format: physicochemical.
The nature of data set [6]: Metabolic stability in human plasma assessed as parent compound remaining measured after 120 mins. In kind it is ADME, cell-free. As to conditions: read-out: Stability.
Data set [7] in a line: Metabolic stability in human liver microsomes assessed as parent compound remaining measured after 60 mins in absence of NADPH co-factor. In kind it is ADME, Microsome. The conditions noted are these: read-out: Stability.
A further data set has as its target Core antigen (Hepatitis B virus, UniProt Q03732). Nature of the data set: Inhibition of Hepatitis B virus Capsid protein assembly activity by fluorescence based analysis.
A short description of data set [8]: Metabolic stability in human liver microsomes assessed as parent compound remaining measured after 60 mins in presence of NADPH co-factor. As to conditions: read-out: Stability. In kind it is ADME, Microsome.
The nature of data set [9]: Metabolic stability in human plasma assessed as half-life. In kind it is ADME, cell-free.
The nature of data set [10]: Metabolic stability in human liver microsomes assessed as half-life. Format: ADME, Microsome. A general note: Liver microsomes are vesicles of endoplasmic reticulum, rich in cytochrome P450 enzymes.
A short description of data set [11]: Metabolic stability in human plasma assessed as parent compound remaining measured after 10 mins. Format: ADME, cell-free. As to conditions: read-out: Stability.
Data set [12] is described as follows: Metabolic stability in human plasma assessed as parent compound remaining measured immediately. The conditions noted are these: read-out: Stability. In kind it is ADME, cell-free.
A short description of data set [13]: Metabolic stability in human liver assessed as intrinsic clearance. In kind it is ADME, tissue-based. The conditions noted are these: read-out: CLH.
A short description of data set [14]: Metabolic stability in human plasma assessed as parent compound remaining measured after 60 mins. Format: ADME, cell-free. The conditions noted are these: read-out: Stability.
Data set [15] in a line: Metabolic stability in human liver microsomes assessed as intrinsic clearance. In kind it is ADME, Microsome. The conditions noted are these: read-out: CLH.
Data set [16] is described as follows: Metabolic stability in human plasma assessed as parent compound remaining measured after 30 mins. Format: ADME, cell-free. As to conditions: read-out: Stability.

This note sets out measurements from ChEMBL document CHEMBL6127026, “Design, synthesis and anti-HBV activity study of novel HBV capsid assembly modulators” (Bioorg Med Chem Lett, 2024).

For orientation: CC50 means the concentration giving 50% cytotoxicity. The EC50 is the concentration needed to bring the measured effect to its halfway point. The AUC(0-inf) is the area under the concentration-time curve extrapolated to infinity. One may read the Cmax as the highest concentration seen after dosing. The term logP denotes a log measure of how a compound divides between an organic and an aqueous phase. In general, IC50 refers to the concentration that gives 50% inhibition. A low value points to higher potency. As usually defined, the half-life is the time needed for the level to fall by half in the phase considered.

Core antigen, sequence (Q03732 whole entry): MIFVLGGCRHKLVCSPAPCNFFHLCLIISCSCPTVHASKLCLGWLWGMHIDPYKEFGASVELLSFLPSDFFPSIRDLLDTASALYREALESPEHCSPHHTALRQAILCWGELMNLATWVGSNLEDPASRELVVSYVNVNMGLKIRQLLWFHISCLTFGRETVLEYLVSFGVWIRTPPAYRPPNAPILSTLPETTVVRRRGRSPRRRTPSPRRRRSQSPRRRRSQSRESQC

For `O=C(Nc1cc(F)c(F)c(F)c1)c1ccc(F)c(S(=O)(=O)N2CCC(O)CC2)c1`, in [1], the CC50 was found to be 20.8 µM. The 50% effective concentration (EC50) in the data set on Hepatitis B virus was 0.29 µM. Besides, in data set [2], the AUC(0-inf) was found to be 3500 ng·h/mL. In [3], this compound came in with a Cmax of 560 ng/mL. Moreover, in [4], the selectivity ratio is 88.4. The logP in data set [5] is listed as 1.75.

`O=C(c1cc(S(=O)(=O)NC2CCCC2)cc2c1OCCO2)N1CCC(O)CC1` came in with a CC50 in data set [1] of over 100 µM. For the same compound, the EC50 in the data set on Hepatitis B virus was over 20 µM.

As to `O=C(Nc1cc(F)c(F)c(F)c1)c1cc(S(=O)(=O)NC2CCCC2)cc2c1OCCO2`, the remaining at 2 h in data set [6] came out at 99.4%. Moreover, the CC50 in data set [1] was over 100 µM. For the same compound, the remaining at 1 h in data set [7] was determined as 84.1%; in data set [8], 5%; in data set [14], 115%. Also, on Core antigen, the IC50 stood at 1.45 µM. For the same compound, the half-life in [9] was over 289 min; in data set [10], 13.9 min. In addition, the concentration giving a half-maximal response (EC50) with Hepatitis B virus came out at 0.24 µM. The remaining at 10 min in [11] was 115%. For the same compound, the remaining at 0 min in data set [12] amounted to 100%. In data set [13], the CLint scaled amounted to 89.8 mL/min/kg. In data set [4], the selectivity ratio was over 419. For the same compound, the logP in data set [5] (read-out: logP) was determined as 1.59. Moreover, the microsomal CLint in data set [15] stood at 99.8 µL/min/mg. Also, in [16], the remaining at 0.5 h stood at 112%.

Compound `N#Cc1cc(NC(=O)c2cc(S(=O)(=O)NC3CCCC3)cc3c2OCCO3)ccc1F` yielded a CC50 in data set [1] of over 100 µM. Also, the EC50 with Hepatitis B virus is 1.53 µM. Besides, the selectivity ratio in data set [4] is over 65.3.

`O=C(Nc1cc(F)cc(F)c1)c1cc(S(=O)(=O)NC2CCCC2)cc2c1OCCO2`: in [1], the CC50 was over 100 µM. The EC50 with Hepatitis B virus was determined as 0.43 µM. Further, the selectivity ratio in [4] was over 232.

For the compound `O=C(NC1CCCC1)c1cc(S(=O)(=O)NC2CCCC2)cc2c1OCCO2`, the CC50 in [1] was over 100 µM. Further, the EC50 in the data set with Hepatitis B virus is over 20 µM.

`O=C(Nc1ccc(F)cc1)c1cc(S(=O)(=O)NC2CCCC2)cc2c1OCCO2`: the half-maximal cytotoxic concentration (CC50) in data set [1] is over 100 µM. Further, in the data set on Hepatitis B virus, the EC50 came out at 1 µM. For the same compound, the selectivity ratio in data set [4] was over 98.2.

For the compound `O=C(Nc1ccc(F)c(F)c1)c1cc(S(=O)(=O)NC2CCCC2)cc2c1OCCO2`, the CC50 in data set [1] was found to be 81.4 µM. Further, the concentration giving a half-maximal response (EC50) in the data set on Hepatitis B virus was determined as 0.91 µM. Moreover, the selectivity ratio in data set [4] came to 89.

In the case of `O=C(Nc1ccc(F)c(Cl)c1)c1cc(S(=O)(=O)NC2CCCC2)cc2c1OCCO2`, it took 48.2 µM to reach half-maximal cytotoxicity in [1] (CC50). On Core antigen, this compound registered a 50% inhibitory concentration (IC50) of 4.22 µM. Besides, the EC50 in the data set on Hepatitis B virus is 0.5 µM. In addition, the selectivity ratio in data set [4] was found to be 95.5.

As for `O=C(Nc1ccc(F)c(Cl)c1)c1cc(S(=O)(=O)Nc2nccs2)cc2c1OCCO2`, in data set [1], the CC50 is over 100 µM. Besides, the concentration for a half-maximal effect (EC50) with Hepatitis B virus was over 20 µM.

Consider `Cc1cc(NC(=O)c2cc(S(=O)(=O)NC3CCCC3)cc3c2OCCO3)ccc1F`, for which the CC50 in data set [1] stood at 51 µM. The EC50 with Hepatitis B virus came out at 0.49 µM. The selectivity ratio in data set [4] was 104.

Compound `O=C(Nc1ccc(F)c(Cl)c1)c1cc(S(=O)(=O)Nc2ccsc2)cc2c1OCCO2` displayed a cytotoxic concentration (CC50) in [1] of over 100 µM. Besides, the EC50 with Hepatitis B virus was 0.86 µM. Also, in data set [4], the selectivity ratio is over 116.

As for `O=C(Nc1ccc(F)c(Cl)c1)c1cc2c(c(S(=O)(=O)Nc3ccc(F)c(Cl)c3)c1)OCCO2`, the CC50 in [1] was found to be 6.64 µM. The EC50 in the data set with Hepatitis B virus was determined as 4.56 µM. In data set [4], the selectivity ratio was 1.46.

In data set [1], `O=C(NC1CCCC1)c1cc2c(c(S(=O)(=O)Nc3cc(F)c(F)c(F)c3)c1)OCCO2` came in with a cytotoxic concentration (CC50) of 20.5 µM. The concentration giving a half-maximal response (EC50) in the data set with Hepatitis B virus was 7.36 µM. Also, the selectivity ratio in [4] stood at 2.79.

Consider `O=C(NC1CCCC1)c1cc(S(=O)(=O)Nc2cc(F)c(F)c(F)c2)cc2c1OCCO2`, for which, in [1], the CC50 is over 100 µM. Moreover, the EC50 with Hepatitis B virus is over 20 µM.

Regarding `O=C(NC1CCCC1)c1cc(S(=O)(=O)Nc2ccc(F)c(Cl)c2)cc2c1OCCO2`, in [1], the CC50 was over 100 µM. Further, the EC50 in the data set on Hepatitis B virus worked out at 1.07 µM. Also, the selectivity ratio in data set [4] was over 93.

As for `O=C(NC1CCCC1)c1cc2c(c(S(=O)(=O)Nc3ccc(F)c(Cl)c3)c1)OCCO2`, the half-maximal cytotoxic concentration (CC50) in data set [1] was over 100 µM. In addition, in the data set with Hepatitis B virus, the EC50 was over 20 µM.

In the case of `O=C(O)Cc1ccccc1Nc1c(Cl)cccc1Cl` [DICLOFENAC], in data set [13], the CLint scaled turned out to be 232 mL/min/kg.

As for `CC(C)[N+](C)(CCOC(=O)C1c2ccccc2Oc2ccccc21)C(C)C.[Br-]` [PROPANTHELINE BROMIDE], the half-life in data set [9] was found to be 7.4 min. In addition, the remaining at 10 min in data set [11] was 52%. In addition, the remaining at 1 h in data set [14] was 0.4%. In [16], the remaining at 0.5 h was found to be 8.3%.
